Values of other authors in US5932245A, “Gelatin or collagen hydrolysate containing drug formulation that provides for immediate release of nanoparticle drug compounds” (priority 1991, dated 1999).
Converted amounts (≈) assume the structure as drawn. Where two headings read alike, the source gives them in different places. Blank lines part the entries; values can stand above or below the molecule they belong to.

Assays:
[1] = in contrast to indometacin
[2] = in vivo
[3] = aqueous medium

SMILES: COc1ccc2c(c1)c(CC(=O)OCC(=O)O)c(C)n2C(=O)c1ccc(Cl)cc1 [acemetacin, carboxymethyl(1-(4-chlorobenzoyl)-5-methoxy-2-methyl-3-indolyl)acetate]
ulcerogenic properties [1]: weakly pronounced ulcerogenic properties
metabolism [2]: for the most part metabolized to indometacin

solubility ([3]; pH 1.3, room temperature): 1 mg/L (≈ 2.02 µM)
solubility ([3]; pH 6.0, room temperature): 3 mg/L (≈ 6.07 µM)
solubility ([3]; pH 7.8, room temperature): about 30 mg/l
SMILES: COc1ccc(Cl)cc1C(=O)NCCc1ccc(S(=O)(=O)NC(=O)NC2CCCCC2)cc1 [glibenclamide, 1-{4-[2-(5-chloro-2-methoxybenzamido)ethyl]phenylsulfonyl}-3-cyclohexylurea]

water solubility (in words): virtually water-insoluble
SMILES: COc1ccc2c(c1)c(CC(=O)O)c(C)n2C(=O)c1ccc(Cl)cc1 [indometacin, (1-(4-chlorobenzoyl)-5-methoxy-2-methyl-3-indolyl)acetic acid]
